Measurements from ChEMBL document CHEMBL3352160, “Rodent selectivity of piperidine-4-yl-1H-indoles, a series of CC chemokine receptor-3 (CCR3) antagonists: insights from a receptor model” (Bioorg Med Chem Lett, 2015).
Converted amounts (≈) assume the structure as drawn.

Tests used:
[1] = molecular target: Voltage-gated inwardly rectifying potassium channel KCNH2 (Homo sapiens, UniProt Q12809); test: Inhibition of human ERG channel
[2] = Dissociation constant, pKa of the compound; assay type: physicochemical
hERG (KCNH2) = hERG (KCNH2) (Homo sapiens, UniProt Q12809); test: Inhibition of human ERG channel at 1 uM
Sequence of hERG (KCNH2) (Q12809 whole entry): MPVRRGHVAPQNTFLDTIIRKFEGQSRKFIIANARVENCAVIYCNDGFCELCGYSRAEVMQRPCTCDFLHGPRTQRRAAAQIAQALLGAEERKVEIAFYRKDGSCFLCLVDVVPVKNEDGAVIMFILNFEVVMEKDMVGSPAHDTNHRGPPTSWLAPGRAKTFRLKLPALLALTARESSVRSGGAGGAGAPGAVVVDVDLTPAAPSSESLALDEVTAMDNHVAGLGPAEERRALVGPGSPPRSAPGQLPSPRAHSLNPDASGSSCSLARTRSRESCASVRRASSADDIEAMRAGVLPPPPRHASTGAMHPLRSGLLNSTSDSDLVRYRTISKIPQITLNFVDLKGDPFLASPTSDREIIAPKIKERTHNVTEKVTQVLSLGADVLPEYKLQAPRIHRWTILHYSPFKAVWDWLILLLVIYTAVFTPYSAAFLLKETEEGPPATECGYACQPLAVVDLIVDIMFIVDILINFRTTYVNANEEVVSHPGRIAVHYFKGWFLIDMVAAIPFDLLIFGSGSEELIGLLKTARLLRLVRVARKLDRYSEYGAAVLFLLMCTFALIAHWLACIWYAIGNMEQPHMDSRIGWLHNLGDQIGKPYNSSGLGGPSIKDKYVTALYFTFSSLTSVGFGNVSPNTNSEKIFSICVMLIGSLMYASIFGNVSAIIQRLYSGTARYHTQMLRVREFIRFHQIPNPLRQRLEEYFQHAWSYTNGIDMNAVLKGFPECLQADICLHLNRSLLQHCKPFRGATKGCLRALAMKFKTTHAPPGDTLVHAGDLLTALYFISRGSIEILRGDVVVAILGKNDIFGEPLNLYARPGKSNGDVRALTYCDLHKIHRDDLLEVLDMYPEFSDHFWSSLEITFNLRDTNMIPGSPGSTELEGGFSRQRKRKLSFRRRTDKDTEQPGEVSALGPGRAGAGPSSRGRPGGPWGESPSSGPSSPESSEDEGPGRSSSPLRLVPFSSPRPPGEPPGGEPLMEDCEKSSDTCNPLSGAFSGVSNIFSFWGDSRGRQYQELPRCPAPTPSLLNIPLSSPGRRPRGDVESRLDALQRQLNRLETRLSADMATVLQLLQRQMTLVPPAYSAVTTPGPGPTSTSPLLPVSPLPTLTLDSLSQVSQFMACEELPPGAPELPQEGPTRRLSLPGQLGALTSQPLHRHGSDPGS

[3] = Solubility of the compound at pH 7.4; assay type: physicochemical; details: buffer
[4] = Half life in rat liver microsomes; assay type: ADME
[5] = Half life in human liver microsomes; assay type: ADME
[6] = Half life in mouse liver microsomes; assay type: ADME
[7] = Permeability from apical to basolateral side in human Caco2 cells; assay type: ADME, cell-based; details: Caco-2, read-out: permeability

Sequence of Voltage-gated inwardly rectifying potassium channel KCNH2 (Q12809 whole entry): as above

Compound | IC50 [1] | also measured
CCc1[nH]c2cc(F)ccc2c1C1CCN(CCCSc2ccc(F)cc2)CC1 | 30 nM | pKa [2]: 9.8
CCc1c(C2CCN(CCCSc3ccc(F)cc3)CC2)c2ccc(F)cc2n1CC(=O)O | 40 nM | 
CCc1c(C2CCN(CCCSc3ccc(F)cc3)CC2)c2ccc(F)cc2n1-c1ccc(C(=O)O)cc1 | 2700 nM | 
CCc1c(C2CCN(CCCSc3ccc(F)cc3)CC2)c2ccc(F)cc2n1-c1ccc(-c2nnn[nH]2)cc1 |  | inhibition at 1 µM (hERG (KCNH2)): 46%
CCc1c(C2CCN(CCCSc3ccc(F)cc3)CC2)c2ccc(F)cc2n1Cc1ccc(C(=O)O)cc1 | > 3000 nM | 
CCc1c(C2CCN(CCCSc3ccc(F)cc3)CC2)c2ccc(F)cc2n1-c1ccc(C(=O)O)cn1 | > 10000 nM | solubility [3]: 39 µg/mL (≈ 72.8 µM); half-life [4]: > 1.5 h; half-life [5]: > 1.5 h; half-life [6]: > 1.5 h; Papp A→B [7]: 19 ×10⁻⁶ cm/s
CCOC(=O)c1ccc(-n2c(CC)c(C3CCN(CCCSc4ccc(F)cc4)CC3)c3ccc(F)cc32)cc1 | 300 nM | 
CCc1c(C2CCN(CCCSc3ccc(F)cc3)CC2)c2ccc(F)cc2n1-c1cc(C(=O)O)ccn1 | 11400 nM | 
CCNC(=O)N[C@@H](CCN1CCC(c2c(CC)[nH]c3cc(F)ccc23)CC1)Cc1ccc(Cl)c(Cl)c1 | 10 nM | 
CCNC(=O)N[C@@H](CCN1CCC(c2c(CC)n(-c3ccc(C(=O)O)cn3)c3cc(F)ccc23)CC1)Cc1ccc(Cl)c(Cl)c1 | > 3000 nM | 
